Results taken from US9738634B2, “Heterocyclic amide compound and herbicide” (SYNGENTA PARTICIPATIONS AG, priority 2013, dated 2017).

What was measured:
Format in all cases: in vivo
Details in all cases: treatment dosage 320 g/ha
barnyard grass [1] = test: Test Example 2: weedkilling efficacy, growth period weed treatment in the submerged state; A: barnyard grass
How it was run: (§1)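 Barnyard grass, bulrush and oval-leafed pondweed sown in alluvial soil under 4 cm flooding, greenhouse 25 to 30° C. At 1-2 leaf stage, water-diluted emulsion applied to the water surface at stated g/ha dosages; effects scored 3 weeks later.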

wheat [2] = test: Test Example 4: foliar treatment, effect on crop; e: wheat
How it was run: (§2)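 Seeds are spot-sown into sterilized diluvial soil and covered with about 1.5 cm of soil. After 14 days' greenhouse growth at 25 to 30° C, plants are sprayed on stems and leaves with diluted emulsion at the stated g/ha rate, then scored at 3 weeks.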

black-grass [3] = test: Test Example 3: weedkilling efficacy through soil treatment; H: black-grass
How it was run: (§3)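 Crop and weed responses were judged three weeks after a uniform surface spray of the water-diluted emulsion at the given g/ha rate. Seeds sat beneath about 1.5 cm of sterilized diluvial soil, and boxes stood in a greenhouse at 25 to 30° C.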

fig-leafed goosefoot [4] = test: Test Example 3: weedkilling efficacy through soil treatment; M: fig-leafed goosefoot
How it was run: as §3

birds-eye speedwell [5] = test: Test Example 4: weedkilling efficacy by foliar treatment; p: birds-eye speedwell
How it was run: as §2

Indian mallow [6] = test: Test Example 4: weedkilling efficacy by foliar treatment; K: Indian mallow
How it was run: as §2

rapeseed [7] = test: Test Example 3: soil treatment, effect on crop; g: rapeseed
How it was run: as §3

directly sown rice [8] = test: Test Example 4: foliar treatment, effect on crop; b: directly sown rice
How it was run: as §2

wild oat [9] = test: Test Example 3: weedkilling efficacy through soil treatment; G: wild oat
How it was run: as §3

crabgrass [10] = test: Test Example 4: weedkilling efficacy by foliar treatment; D: crabgrass
How it was run: as §2

barnyard grass [11] = test: Test Example 1: weedkilling efficacy, preemergent weed treatment in the submerged state; A: barnyard grass
How it was run: (§4)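 Pots of alluvial soil flooded 4 cm deep, sown with barnyard grass, bulrush and oval-leafed pondweed and transplanted with 2.5-leaf rice. Emulsified compound applied to the water surface on sowing day at stated g/ha; greenhouse 25–30 °C, effects assessed 3 weeks after treatment.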

rapeseed [12] = test: Test Example 4: foliar treatment, effect on crop; g: rapeseed
How it was run: as §2

wheat [13] = test: Test Example 3: soil treatment, effect on crop; e: wheat
How it was run: as §3

beet [14] = test: Test Example 4: foliar treatment, effect on crop; f: beet
How it was run: as §2

Italian ryegrass [15] = test: Test Example 3: weedkilling efficacy through soil treatment; I: Italian ryegrass
How it was run: as §3

oval-leafed pondweed [16] = test: Test Example 2: weedkilling efficacy, growth period weed treatment in the submerged state; C: oval-leafed pondweed
How it was run: as §1

beet [17] = test: Test Example 3: soil treatment, effect on crop; f: beet
How it was run: as §3

bulrush [18] = test: Test Example 1: weedkilling efficacy, preemergent weed treatment in the submerged state; B: bulrush
How it was run: as §4

soybean [19] = test: Test Example 4: foliar treatment, effect on crop; d: soybean
How it was run: as §2

transplanted rice = test: Test Example 1: preemergent weed treatment in the submerged state, effect on crop; a: transplanted rice
How it was run: as §4

corn [20] = test: Test Example 3: soil treatment, effect on crop; c: corn
How it was run: as §3

directly sown rice [21] = test: Test Example 3: soil treatment, effect on crop; b: directly sown rice
How it was run: as §3

chickweed [22] = test: Test Example 3: weedkilling efficacy through soil treatment; N: chickweed
How it was run: as §3

soybean [23] = test: Test Example 3: soil treatment, effect on crop; d: soybean
How it was run: as §3

barnyard grass [24] = test: Test Example 3: weedkilling efficacy through soil treatment; F: barnyard grass
How it was run: as §3

chickweed [25] = test: Test Example 4: weedkilling efficacy by foliar treatment; N: chickweed
How it was run: as §2

crabgrass [26] = test: Test Example 3: weedkilling efficacy through soil treatment; D: crabgrass
How it was run: as §3

birds-eye speedwell [27] = test: Test Example 3: weedkilling efficacy through soil treatment; p: birds-eye speedwell
How it was run: as §3

green foxtail [28] = test: Test Example 4: weedkilling efficacy by foliar treatment; E: green foxtail
How it was run: as §2

catchweed = test: Test Example 4: weedkilling efficacy by foliar treatment; O: catchweed
How it was run: as §2

redroot pigweed [29] = test: Test Example 3: weedkilling efficacy through soil treatment; L: redroot pigweed
How it was run: as §3

wild oat [30] = test: Test Example 4: weedkilling efficacy by foliar treatment; G: wild oat
How it was run: as §2

common wind-grass [31] = test: Test Example 3: weedkilling efficacy through soil treatment; J: common wind-grass
How it was run: as §3

Indian mallow [32] = test: Test Example 3: weedkilling efficacy through soil treatment; K: Indian mallow
How it was run: as §3

black-grass [33] = test: Test Example 4: weedkilling efficacy by foliar treatment; H: black-grass
How it was run: as §2

bulrush [34] = test: Test Example 2: weedkilling efficacy, growth period weed treatment in the submerged state; B: bulrush
How it was run: as §1

redroot pigweed [35] = test: Test Example 4: weedkilling efficacy by foliar treatment; L: redroot pigweed
How it was run: as §2

fig-leafed goosefoot [36] = test: Test Example 4: weedkilling efficacy by foliar treatment; M: fig-leafed goosefoot
How it was run: as §2

corn [37] = test: Test Example 4: foliar treatment, effect on crop; c: corn
How it was run: as §2

green foxtail [38] = test: Test Example 3: weedkilling efficacy through soil treatment; E: green foxtail
How it was run: as §3

barnyard grass [39] = test: Test Example 4: weedkilling efficacy by foliar treatment; F: barnyard grass
How it was run: as §2

Italian ryegrass [40] = test: Test Example 4: weedkilling efficacy by foliar treatment; I: Italian ryegrass
How it was run: as §2

common wind-grass [41] = test: Test Example 4: weedkilling efficacy by foliar treatment; J: common wind-grass
How it was run: as §2

oval-leafed pondweed [42] = test: Test Example 1: weedkilling efficacy, preemergent weed treatment in the submerged state; C: oval-leafed pondweed
How it was run: as §4

With `COc1cc(C(F)(F)F)cc(NC(=O)C(C)(C)N2COC(C)=C(c3ccccc3)C2=O)n1` [B-2-49] the “A (barnyard grass) weedkilling efficacy grade” value (barnyard grass [1]) was 5 (weed kill ratio 90% or more, (practically complete withering)), the “e (wheat) effect on crop grade” value (wheat [2]) was 0 (weed kill ratio 5% or less (practically no effect)) and the “H (black-grass) weedkilling efficacy grade” value (black-grass [3]) was 5 (weed kill ratio 90% or more, (practically complete withering)). The “M (fig-leafed goosefoot) weedkilling efficacy grade” value (fig-leafed goosefoot [4]) was 3 (weed kill ratio 40% or more, less than 70%), the “P (birds-eye speedwell) weedkilling efficacy grade” value (birds-eye speedwell [5]) was 4 (weed kill ratio 70% or more, less than 90%) and the “K (Indian mallow) weedkilling efficacy grade” value (Indian mallow [6]) was 4 (weed kill ratio 70% or more, less than 90%). For the same compound, the “g (rapeseed) effect on crop grade” value (rapeseed [7]) was 3 (weed kill ratio 40% or more, less than 70%), the “b (directly sown rice) effect on crop grade” value (directly sown rice [8]) was 0 (weed kill ratio 5% or less (practically no effect)) and the “G (wild oat) weedkilling efficacy grade” value (wild oat [9]) was 3 (weed kill ratio 40% or more, less than 70%). For the same compound, the “D (crabgrass) weedkilling efficacy grade” value (crabgrass [10]) was 5 (weed kill ratio 90% or more, (practically complete withering)), the “A (barnyard grass) weedkilling efficacy grade” value (barnyard grass [11]) was 5 (weed kill ratio 90% or more, (practically complete withering)) and the “g (rapeseed) effect on crop grade” value (rapeseed [12]) was 3 (weed kill ratio 40% or more, less than 70%). The “e (wheat) effect on crop grade” value (wheat [13]) was 0 (weed kill ratio 5% or less (practically no effect)), the “f (beet) effect on crop grade” value (beet [14]) was 3 (weed kill ratio 40% or more, less than 70%) and the “I (Italian ryegrass) weedkilling efficacy grade” value (Italian ryegrass [15]) was 5 (weed kill ratio 90% or more, (practically complete withering)). For the same compound, the “C (oval-leafed pondweed) weedkilling efficacy grade” value (oval-leafed pondweed [16]) was 5 (weed kill ratio 90% or more, (practically complete withering)), the “f (beet) effect on crop grade” value (beet [17]) was 3 (weed kill ratio 40% or more, less than 70%) and the “B (bulrush) weedkilling efficacy grade” value (bulrush [18]) was 5 (weed kill ratio 90% or more, (practically complete withering)). The “d (soybean) effect on crop grade” value (soybean [19]) was 3 (weed kill ratio 40% or more, less than 70%), the “a (transplanted rice) effect on crop grade” value (transplanted rice) was 3 (weed kill ratio 40% or more, less than 70%) and the “c (corn) effect on crop grade” value (corn [20]) was 0 (weed kill ratio 5% or less (practically no effect)). The “b (directly sown rice) effect on crop grade” value (directly sown rice [21]) was 3 (weed kill ratio 40% or more, less than 70%), the “N (chickweed) weedkilling efficacy grade” value (chickweed [22]) was 4 (weed kill ratio 70% or more, less than 90%) and the “d (soybean) effect on crop grade” value (soybean [23]) was 0 (weed kill ratio 5% or less (practically no effect)). For the same compound, the “F (barnyard grass) weedkilling efficacy grade” value (barnyard grass [24]) was 5 (weed kill ratio 90% or more, (practically complete withering)), the “N (chickweed) weedkilling efficacy grade” value (chickweed [25]) was 3 (weed kill ratio 40% or more, less than 70%) and the “D (crabgrass) weedkilling efficacy grade” value (crabgrass [26]) was 5 (weed kill ratio 90% or more, (practically complete withering)). For the same compound, the “P (birds-eye speedwell) weedkilling efficacy grade” value (birds-eye speedwell [27]) was 5 (weed kill ratio 90% or more, (practically complete withering)), the “E (green foxtail) weedkilling efficacy grade” value (green foxtail [28]) was 5 (weed kill ratio 90% or more, (practically complete withering)) and the “O (catchweed) weedkilling efficacy grade” value (catchweed) was 3 (weed kill ratio 40% or more, less than 70%). The “L (redroot pigweed) weedkilling efficacy grade” value (redroot pigweed [29]) was 4 (weed kill ratio 70% or more, less than 90%), the “G (wild oat) weedkilling efficacy grade” value (wild oat [30]) was 3 (weed kill ratio 40% or more, less than 70%) and the “J (common wind-grass) weedkilling efficacy grade” value (common wind-grass [31]) was 5 (weed kill ratio 90% or more, (practically complete withering)). For the same compound, the “K (Indian mallow) weedkilling efficacy grade” value (Indian mallow [32]) was 1 (weed kill ratio 5% or more, less than 20%), the “H (black-grass) weedkilling efficacy grade” value (black-grass [33]) was 3 (weed kill ratio 40% or more, less than 70%) and the “B (bulrush) weedkilling efficacy grade” value (bulrush [34]) was 5 (weed kill ratio 90% or more, (practically complete withering)). The “L (redroot pigweed) weedkilling efficacy grade” value (redroot pigweed [35]) was 3 (weed kill ratio 40% or more, less than 70%), the “M (fig-leafed goosefoot) weedkilling efficacy grade” value (fig-leafed goosefoot [36]) was 3 (weed kill ratio 40% or more, less than 70%) and the “c (corn) effect on crop grade” value (corn [37]) was 3 (weed kill ratio 40% or more, less than 70%). The “E (green foxtail) weedkilling efficacy grade” value (green foxtail [38]) was 5 (weed kill ratio 90% or more, (practically complete withering)), the “F (barnyard grass) weedkilling efficacy grade” value (barnyard grass [39]) was 4 (weed kill ratio 70% or more, less than 90%) and the “I (Italian ryegrass) weedkilling efficacy grade” value (Italian ryegrass [40]) was 1 (weed kill ratio 5% or more, less than 20%). The “J (common wind-grass) weedkilling efficacy grade” value (common wind-grass [41]) was 4 (weed kill ratio 70% or more, less than 90%) and the “C (oval-leafed pondweed) weedkilling efficacy grade” value (oval-leafed pondweed [42]) was 5 (weed kill ratio 90% or more, (practically complete withering)).
